Assay [1] concerns Vero. The assay can be described thus: Photocytotoxicity was evaluated on the cell growth inhibition using Vero cells were at the concentration of 10 uM after 48 hr of incubation. Type of assay: functional, Chlorocebus sabaeus.
In assay [2] the test system is Vero. In words: Photocytotoxicity was evaluated on the cell growth inhibition using Vero cells were at the concentration of 5 uM after 48 hr of incubation. The assay is classed as functional, Chlorocebus sabaeus.
The subject of assay [3] is Vero. The assay can be described thus: Photocytotoxicity was evaluated on the cell growth inhibition using Vero cells were at the concentration of 0.25 uM after 48 hr of incubation. Type of assay: functional, Chlorocebus sabaeus.
The test system of assay [4] is Human alphaherpesvirus 1. The assay can be described thus: Photostability against herpes simplex virus type 1 after 15 min of irradiation with total light dose of 45 mW/cm**2. The assay is classed as functional.
For assay [5], the system named is Human alphaherpesvirus 1. In words: Photostability against herpes simplex virus type 1 after 10 min of irradiation with total light dose of 30 mW/cm**2. The assay is classed as functional.
Assay [6] deals with Vero. The assay can be described thus: Photocytotoxicity was evaluated on the cell growth inhibition using Vero cells were at the concentration of 20 uM after 48 h of incubation. Type of assay: functional, Chlorocebus sabaeus.
Assay [7] relates to Human alphaherpesvirus 1. The assay can be described thus: Photostability against herpes simplex virus type 1 after 3 min of irradiation with total light dose of 9 mW/cm**2. Type of assay: functional.
The test system of assay [8] is Human alphaherpesvirus 1. In words: Photovirucidal effect against herpes simplex virus type 1 after 5 mins of irradiation time with white light of 50 mW/cm2. The assay is classed as functional.
Assay [9] relates to Vero. In words: Concentration required for cellular cytotoxicity against Vero cells.
In assay [10] the test system is Vero. In words: Photocytotoxicity was evaluated on the cell growth inhibition using Vero cells were at the concentration of 1 uM after 48 hr of incubation. The assay is classed as functional, Chlorocebus sabaeus.
Assay [11] relates to Vero. In words: Photocytotoxicity was evaluated on the cell growth inhibition using Vero cells were at the concentration of 0.1 uM after 48 hr of incubation. The assay is classed as functional, Chlorocebus sabaeus.
Assay [12] relates to Vero. The assay can be described thus: Photocytotoxicity was evaluated on the cell growth inhibition using Vero cells were at the concentration of 0.5 uM after 48 hr of incubation. The assay is classed as functional, Chlorocebus sabaeus.
The subject of assay [13] is Human alphaherpesvirus 1. The assay can be described thus: Photostability against herpes simplex virus type 1 after 1 min of irradiation with total light dose of 3 mW/cm**2. The assay is classed as functional.
Assay [14] deals with Human alphaherpesvirus 1. The assay can be described thus: Photostability against herpes simplex virus type 1 after 5 min of irradiation with total light dose of 15 mW/cm**2. Type of assay: functional.
For assay [15], the system named is Human alphaherpesvirus 1. In words: Photovirucidal effect against herpes simplex virus type 1 after 15 mins of irradiation time with white light of 50 mW/cm2. The assay is classed as functional.
Assay [16] concerns Human alphaherpesvirus 1. In words: Photovirucidal effect against herpes simplex virus type 1 with no irradiation time with white light of 50 mW/cm2. Type of assay: functional.
Assay [17] relates to Vero. The assay can be described thus: Photocytotoxicity was evaluated on the cell growth inhibition using Vero cells were at the concentration of 20 uM after 48 hr of incubation. Type of assay: functional, Chlorocebus sabaeus.
In assay [18] the test system is Vero. In words: Photocytotoxicity was evaluated on the cell growth inhibition using Vero cells were at the concentration of 10 uM after 48 h of incubation. The assay is classed as functional, Chlorocebus sabaeus.

The values that follow come from ChEMBL document CHEMBL1140246, “Synthesis of cationic beta-vinyl substituted meso-tetraphenylporphyrins and their in vitro activity against herpes simplex virus type 1” (2005).

A word on the CC50: it is the concentration that lowers cell viability or growth by half. Lower therefore signals greater toxicity to the cells.

Turning to `C[n+]1ccc(/C=C/c2cc3[nH]c2c(-c2ccccc2)c2nc(c(-c4ccccc4)c4nc(c(-c5ccccc5)c5ccc([nH]5)c3-c3ccccc3)C=C4)C=C2)cc1.[Cl-]`, the Viability in the assay with Vero [1] came to 62%; with Vero [2], 90.8%; with Vero [3], 99.9%; in the assay with Vero [6], 28%; in the assay on Vero [10], 97.3%; in the assay on Vero [11] it was 104.5%. Further, the Viability in the assay on Vero [12] was 98.3%. In addition, the Intensity in the assay on Human alphaherpesvirus 1 [4] is on record as 91%; with Human alphaherpesvirus 1 [5] it was 93%; with Human alphaherpesvirus 1 [7], 99%; in the assay on Human alphaherpesvirus 1 [13] it was 100%; with Human alphaherpesvirus 1 [14], 96%. The Virus inactivation stood at 0% in the assay on Human alphaherpesvirus 1 [8] and 48.99% with Human alphaherpesvirus 1 [15]. Also, the CC50 in the assay with Vero [9] was found to be 13.5 µM.
As for `C[n+]1ccccc1/C=C/c1cc2[nH]c1c(-c1ccccc1)c1nc(c(-c3ccccc3)c3nc(c(-c4ccccc4)c4ccc([nH]4)c2-c2ccccc2)C=C3)C=C1.[Cl-]`, the Viability was 84.6% in the assay with Vero [2]; 103.3% in the assay on Vero [3]; 95.3% with Vero [10]; 104.8% with Vero [11]; 101% in the assay on Vero [12]; 18.8% in the assay on Vero [17]. The Viability in the assay on Vero [18] was determined as 69%. The Intensity is listed as 83% with Human alphaherpesvirus 1 [4]; 88% in the assay with Human alphaherpesvirus 1 [5]; 94% in the assay on Human alphaherpesvirus 1 [7]; 100% in the assay with Human alphaherpesvirus 1 [13]; 93% in the assay on Human alphaherpesvirus 1 [14]. The Virus inactivation with Human alphaherpesvirus 1 [8] was determined as 96.98%; with Human alphaherpesvirus 1 [16], 27.8%; in the assay with Human alphaherpesvirus 1 [15] it was 99.61%. In the assay on Vero [9], half-maximal cytotoxicity (CC50) was put at 13.7 µM.
